Laboratory results reported in ChEMBL document CHEMBL1143306, “3-amido-4-anilinoquinolines as CSF-1R kinase inhibitors 2: Optimization of the PK profile” (Bioorg Med Chem Lett, 2009).
Values after ≈ are worked out from the molar mass of the structure shown.

Target: Macrophage colony-stimulating factor 1 receptor (Homo sapiens, UniProt P07333)
Assay: Inhibition of CSF1R
Details: not given

Sequence of Macrophage colony-stimulating factor 1 receptor (P07333 whole entry): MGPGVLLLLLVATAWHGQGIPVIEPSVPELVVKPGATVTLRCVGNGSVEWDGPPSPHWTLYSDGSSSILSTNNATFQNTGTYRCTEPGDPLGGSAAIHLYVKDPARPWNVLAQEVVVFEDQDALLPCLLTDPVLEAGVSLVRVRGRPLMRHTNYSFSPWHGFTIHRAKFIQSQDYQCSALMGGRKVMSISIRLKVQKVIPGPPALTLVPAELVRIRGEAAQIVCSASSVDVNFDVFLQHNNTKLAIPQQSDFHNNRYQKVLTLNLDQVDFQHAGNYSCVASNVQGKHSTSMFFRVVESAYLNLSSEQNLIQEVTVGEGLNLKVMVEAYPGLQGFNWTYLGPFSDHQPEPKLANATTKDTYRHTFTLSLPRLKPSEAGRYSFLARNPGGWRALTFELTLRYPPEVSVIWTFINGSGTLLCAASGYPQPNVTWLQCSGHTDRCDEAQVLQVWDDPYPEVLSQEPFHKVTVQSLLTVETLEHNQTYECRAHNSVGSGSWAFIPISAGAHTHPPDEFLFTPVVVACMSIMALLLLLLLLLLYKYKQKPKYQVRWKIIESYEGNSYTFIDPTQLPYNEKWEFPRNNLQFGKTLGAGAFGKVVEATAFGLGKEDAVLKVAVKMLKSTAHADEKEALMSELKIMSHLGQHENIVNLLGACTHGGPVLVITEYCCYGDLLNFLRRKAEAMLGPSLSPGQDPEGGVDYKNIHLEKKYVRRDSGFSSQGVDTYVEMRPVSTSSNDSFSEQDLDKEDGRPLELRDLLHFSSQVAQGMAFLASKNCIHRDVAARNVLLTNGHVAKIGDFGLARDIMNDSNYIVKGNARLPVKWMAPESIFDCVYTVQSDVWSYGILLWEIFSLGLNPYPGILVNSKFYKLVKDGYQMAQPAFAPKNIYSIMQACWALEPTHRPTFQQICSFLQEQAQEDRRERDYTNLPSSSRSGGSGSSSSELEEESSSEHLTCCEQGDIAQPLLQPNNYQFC

IC50 | SMILES
< 3 nM | COc1cc2ncc(C(N)=O)c(Nc3cccc(Cl)c3Cl)c2cc1N1CCN(C)CC1
129 nM | CN1CCN(c2ccc3ncc(C(N)=O)c(Nc4ccc(Cl)cc4Cl)c3c2)CC1
110 nM | CN1CCN(c2ccc3ncc(C(N)=O)c(Nc4ccc(F)cc4F)c3c2)CC1
3 nM | COc1cc2ncc(C(N)=O)c(Nc3ccc(Cl)cc3Cl)c2cc1N1CCN(C)CC1

System: NIH3T3
Assay: Antiproliferative activity against mouse 3T3 cells expressing human CSF1R after 72 hrs by Celltiter assay
Assay type: functional
Details: not given

SMILES | Activity
COCCOc1cc2ncc(C(N)=O)c(Nc3cccc(Cl)c3Cl)c2cc1N1CCN(C)CC1 | 0.01 µM
CCOc1cc2ncc(C(N)=O)c(Nc3cccc(Cl)c3Cl)c2cc1N1CCN(C(C)C)CC1 | 0.02 µM
CC(C)Oc1cc2ncc(C(N)=O)c(Nc3ccc(F)cc3F)c2cc1N1CCN(C)CC1 | 0.17 µM
COc1cc2ncc(C(N)=O)c(Nc3cccc(Cl)c3Cl)c2cc1N1CCN(C)CC1 | 0.06 µM
CN1CCN(c2ccc3ncc(C(N)=O)c(Nc4ccc(Cl)cc4Cl)c3c2)CC1 | 8.9 µM
CCOc1cc2ncc(C(N)=O)c(Nc3cccc(Cl)c3Cl)c2cc1N1CCN(C(C)=O)CC1 | 0.07 µM
CCOc1cc2ncc(C(N)=O)c(Nc3cc(F)ccc3F)c2cc1N1CCN(C)CC1 | 0.11 µM
CN1CCN(c2ccc3ncc(C(N)=O)c(Nc4ccc(F)cc4F)c3c2)CC1 | 3.9 µM
COc1cc2ncc(C(N)=O)c(Nc3ccc(Cl)cc3Cl)c2cc1N1CCN(C)CC1 | 0.64 µM

System: not listed separately
Assay: Aqueous solubility of the compound
Assay type: physicochemical
Details: buffer

SMILES | solubility
CC(C)Oc1cc2ncc(C(N)=O)c(Nc3ccc(F)cc3F)c2cc1N1CCN(C)CC1 | 52 µM (≈ 23.7 µg/mL)
CN1CCN(c2ccc3ncc(C(N)=O)c(Nc4ccc(Cl)cc4Cl)c3c2)CC1 | 180 µM (≈ 77.5 µg/mL)
CCOc1cc2ncc(C(N)=O)c(Nc3cc(F)ccc3F)c2cc1N1CCN(C)CC1 | 71 µM (≈ 31.3 µg/mL)
CN1CCN(c2ccc3ncc(C(N)=O)c(Nc4ccc(F)cc4F)c3c2)CC1 | 970 µM (≈ 386 µg/mL)
COc1cc2ncc(C(N)=O)c(Nc3ccc(Cl)cc3Cl)c2cc1N1CCN(C)CC1 | 160 µM (≈ 73.7 µg/mL)

Further lines, results first:

solubility | SMILES
380 µM (≈ 192 µg/mL) | COCCOc1cc2ncc(C(N)=O)c(Nc3cccc(Cl)c3Cl)c2cc1N1CCN(C)CC1
250 µM (≈ 126 µg/mL) | CCOc1cc2ncc(C(N)=O)c(Nc3cccc(Cl)c3Cl)c2cc1N1CCN(C(C)C)CC1
810 µM (≈ 373 µg/mL) | COc1cc2ncc(C(N)=O)c(Nc3cccc(Cl)c3Cl)c2cc1N1CCN(C)CC1
2 µM (≈ 1 µg/mL) | CCOc1cc2ncc(C(N)=O)c(Nc3cccc(Cl)c3Cl)c2cc1N1CCN(C(C)=O)CC1

System: not listed separately
Assay: Plasma protein binding assessed as percentage unbound
Details: not given

SMILES | fraction unbound
CC(C)Oc1cc2ncc(C(N)=O)c(Nc3ccc(F)cc3F)c2cc1N1CCN(C)CC1 | 0.017
CN1CCN(c2ccc3ncc(C(N)=O)c(Nc4ccc(Cl)cc4Cl)c3c2)CC1 | 0.018
CCOc1cc2ncc(C(N)=O)c(Nc3cc(F)ccc3F)c2cc1N1CCN(C)CC1 | 0.073
CN1CCN(c2ccc3ncc(C(N)=O)c(Nc4ccc(F)cc4F)c3c2)CC1 | 0.26
COc1cc2ncc(C(N)=O)c(Nc3ccc(Cl)cc3Cl)c2cc1N1CCN(C)CC1 | 0.032

The remaining lines, values ahead:

fraction unbound | SMILES
0.1 | COCCOc1cc2ncc(C(N)=O)c(Nc3cccc(Cl)c3Cl)c2cc1N1CCN(C)CC1
0.015 | CCOc1cc2ncc(C(N)=O)c(Nc3cccc(Cl)c3Cl)c2cc1N1CCN(C(C)C)CC1
0.045 | COc1cc2ncc(C(N)=O)c(Nc3cccc(Cl)c3Cl)c2cc1N1CCN(C)CC1
0.096 | CCOc1cc2ncc(C(N)=O)c(Nc3cccc(Cl)c3Cl)c2cc1N1CCN(C(C)=O)CC1

System: not listed separately
Assay: Bioavailability in rat at 3 mg/kg, iv and 10 mg/kg, po
Assay type: ADME, organism-based
Details: in vivo

SMILES | bioavailability
CC(C)Oc1cc2ncc(C(N)=O)c(Nc3ccc(F)cc3F)c2cc1N1CCN(C)CC1 | 40%
CCOc1cc2ncc(C(N)=O)c(Nc3cc(F)ccc3F)c2cc1N1CCN(C)CC1 | 33%
CN1CCN(c2ccc3ncc(C(N)=O)c(Nc4ccc(F)cc4F)c3c2)CC1 | 21%

Next, values leading:

bioavailability | SMILES
32% | COCCOc1cc2ncc(C(N)=O)c(Nc3cccc(Cl)c3Cl)c2cc1N1CCN(C)CC1
66% | CCOc1cc2ncc(C(N)=O)c(Nc3cccc(Cl)c3Cl)c2cc1N1CCN(C(C)C)CC1
110% | COc1cc2ncc(C(N)=O)c(Nc3cccc(Cl)c3Cl)c2cc1N1CCN(C)CC1
11% | CCOc1cc2ncc(C(N)=O)c(Nc3cccc(Cl)c3Cl)c2cc1N1CCN(C(C)=O)CC1

System: not listed separately
Assay: Clearance in rat at 3 mg/kg, iv and 10 mg/kg, po
Assay type: ADME, organism-based
Details: in vivo

SMILES | clearance
CC(C)Oc1cc2ncc(C(N)=O)c(Nc3ccc(F)cc3F)c2cc1N1CCN(C)CC1 | 7 mL/min/kg
CCOc1cc2ncc(C(N)=O)c(Nc3cc(F)ccc3F)c2cc1N1CCN(C)CC1 | 28 mL/min/kg
CN1CCN(c2ccc3ncc(C(N)=O)c(Nc4ccc(F)cc4F)c3c2)CC1 | 45 mL/min/kg
COc1cc2ncc(C(N)=O)c(Nc3ccc(Cl)cc3Cl)c2cc1N1CCN(C)CC1 | 72 mL/min/kg

The next lines start with the values.

clearance | SMILES
290 mL/min/kg | COCCOc1cc2ncc(C(N)=O)c(Nc3cccc(Cl)c3Cl)c2cc1N1CCN(C)CC1
120 mL/min/kg | CCOc1cc2ncc(C(N)=O)c(Nc3cccc(Cl)c3Cl)c2cc1N1CCN(C(C)C)CC1
76 mL/min/kg | COc1cc2ncc(C(N)=O)c(Nc3cccc(Cl)c3Cl)c2cc1N1CCN(C)CC1
62 mL/min/kg | CCOc1cc2ncc(C(N)=O)c(Nc3cccc(Cl)c3Cl)c2cc1N1CCN(C(C)=O)CC1

System: not listed separately
Assay: Volume of distribution at steady state in rat at 3 mg/kg, iv and 10 mg/kg, po
Assay type: ADME, organism-based
Details: in vivo, read-out: Vdss

SMILES | Vd
CC(C)Oc1cc2ncc(C(N)=O)c(Nc3ccc(F)cc3F)c2cc1N1CCN(C)CC1 | 1.4 L/kg
CCOc1cc2ncc(C(N)=O)c(Nc3cc(F)ccc3F)c2cc1N1CCN(C)CC1 | 2.9 L/kg
CN1CCN(c2ccc3ncc(C(N)=O)c(Nc4ccc(F)cc4F)c3c2)CC1 | 7.6 L/kg
COc1cc2ncc(C(N)=O)c(Nc3ccc(Cl)cc3Cl)c2cc1N1CCN(C)CC1 | 8.7 L/kg

Next, values leading:

Vd | SMILES
21 L/kg | COCCOc1cc2ncc(C(N)=O)c(Nc3cccc(Cl)c3Cl)c2cc1N1CCN(C)CC1
11 L/kg | CCOc1cc2ncc(C(N)=O)c(Nc3cccc(Cl)c3Cl)c2cc1N1CCN(C(C)C)CC1
6.8 L/kg | COc1cc2ncc(C(N)=O)c(Nc3cccc(Cl)c3Cl)c2cc1N1CCN(C)CC1
2.3 L/kg | CCOc1cc2ncc(C(N)=O)c(Nc3cccc(Cl)c3Cl)c2cc1N1CCN(C(C)=O)CC1

System: not listed separately
Assay: Half life in rat at 3 mg/kg, iv and 10 mg/kg, po
Assay type: ADME, organism-based
Details: in vivo

SMILES | half-life
CC(C)Oc1cc2ncc(C(N)=O)c(Nc3ccc(F)cc3F)c2cc1N1CCN(C)CC1 | 2.3 h
CCOc1cc2ncc(C(N)=O)c(Nc3cc(F)ccc3F)c2cc1N1CCN(C)CC1 | 1.3 h
CN1CCN(c2ccc3ncc(C(N)=O)c(Nc4ccc(F)cc4F)c3c2)CC1 | 1.9 h
COc1cc2ncc(C(N)=O)c(Nc3ccc(Cl)cc3Cl)c2cc1N1CCN(C)CC1 | 1.7 h

Further lines, results first:

half-life | SMILES
0.83 h | COCCOc1cc2ncc(C(N)=O)c(Nc3cccc(Cl)c3Cl)c2cc1N1CCN(C)CC1
1.2 h | CCOc1cc2ncc(C(N)=O)c(Nc3cccc(Cl)c3Cl)c2cc1N1CCN(C(C)C)CC1
2.5 h | COc1cc2ncc(C(N)=O)c(Nc3cccc(Cl)c3Cl)c2cc1N1CCN(C)CC1
0.65 h | CCOc1cc2ncc(C(N)=O)c(Nc3cccc(Cl)c3Cl)c2cc1N1CCN(C(C)=O)CC1

System: Mus musculus
Assay: Inhibition of phosphorylated CSF1R level in 3T3/CSF1R mutant cells xenografted nude mouse at 25 mg/kg, po after 2 hrs by ELISA
Assay type: functional
Details: not given

SMILES | inhibition in vivo at 25 mg/kg
COCCOc1cc2ncc(C(N)=O)c(Nc3cccc(Cl)c3Cl)c2cc1N1CCN(C)CC1 | 100%
CCOc1cc2ncc(C(N)=O)c(Nc3cccc(Cl)c3Cl)c2cc1N1CCN(C(C)C)CC1 | 85%
CC(C)Oc1cc2ncc(C(N)=O)c(Nc3ccc(F)cc3F)c2cc1N1CCN(C)CC1 | 100%
CCOc1cc2ncc(C(N)=O)c(Nc3cccc(Cl)c3Cl)c2cc1N1CCN(C(C)=O)CC1 | 65%
CCOc1cc2ncc(C(N)=O)c(Nc3cc(F)ccc3F)c2cc1N1CCN(C)CC1 | 75%

System: Mus musculus
Assay: Inhibition of phosphorylated CSF1R level in 3T3/CSF1R mutant cells xenografted nude mouse at 25 mg/kg, po after 6 hrs by ELISA
Assay type: functional
Details: not given

SMILES | inhibition in vivo at 25 mg/kg
COCCOc1cc2ncc(C(N)=O)c(Nc3cccc(Cl)c3Cl)c2cc1N1CCN(C)CC1 | 80%
CCOc1cc2ncc(C(N)=O)c(Nc3cccc(Cl)c3Cl)c2cc1N1CCN(C(C)C)CC1 | 65%
CC(C)Oc1cc2ncc(C(N)=O)c(Nc3ccc(F)cc3F)c2cc1N1CCN(C)CC1 | 50%
CCOc1cc2ncc(C(N)=O)c(Nc3cccc(Cl)c3Cl)c2cc1N1CCN(C(C)=O)CC1 | 30%
CCOc1cc2ncc(C(N)=O)c(Nc3cc(F)ccc3F)c2cc1N1CCN(C)CC1 | 45%
